Assays:
Format in all cases: biochemical
cathepsin B = assay: Inhibitory Activity against Cathepsin B; settings: pH 6.0, preincubated 40° C. 10 min, incubation 10 min
Procedure: The activity was measured according to the method of A.J. Barrett et al [Biochem. J., vol.
To each of 0.95 ml of the reaction solutions containing 2.5 mM 2-mercaptoethanol, 1 mM disodium ethylenediaminetetraacetate, 0.1 M sodium potassium phosphate buffer (pH 6.0), 0.1% brij-35 (Nacalai Tesque Inc.), 1% dimethyl sulfoxide and different concentrations of the test drug was added 25 μl of 200 nM cathepsin B solution (Sigma Chemical Co.), and the mixture was preincubated for 40° C. for 10 minutes, after which 25 μl of 200 µM benzyloxycarbonyl L-phenylaranyl-L-arginine 4-methylcoumaryl-7-amide (Peptide Institute Inc.) was added for starting the reaction. After incubation at 40° C. for 10 minutes, the reaction was stopped by addition of 1 ml of 100 mM sodium chloroacetate in 100 mM sodium acetate (pH 4.3) The fluorescence of the liberated 7-amino-4-methylcoumarine was determined using a Shimazu fluorimeter RP-5000 with excitation at 380 n and emission measured at 440 nm. […] Chosen as a comparative drug is N-(L-3-trans-carboxy-oxirane-2-carbonyl)-L-isoleucyl-L-proline methyl ester which is included within the structural formula of the above U.K. Patent and is the closest compound to the compound of formula I in the structure.

CANP (μCANP, Calpain I) = molecular target: T1, CANP (μCANP, Calpain I) (Homo sapiens, UniProt P07384); assay: Inhibitory Activity against CANP; settings: alkali-denatured casein, pH 7.5, preincubated 30° C. 5 min, incubation 20 min, read-out: concentration of the test drug required for 50% inhibition (IC50)
T1 construct: purchased Nacalai Tesque Inc
T1 sequence (P07384 1-714): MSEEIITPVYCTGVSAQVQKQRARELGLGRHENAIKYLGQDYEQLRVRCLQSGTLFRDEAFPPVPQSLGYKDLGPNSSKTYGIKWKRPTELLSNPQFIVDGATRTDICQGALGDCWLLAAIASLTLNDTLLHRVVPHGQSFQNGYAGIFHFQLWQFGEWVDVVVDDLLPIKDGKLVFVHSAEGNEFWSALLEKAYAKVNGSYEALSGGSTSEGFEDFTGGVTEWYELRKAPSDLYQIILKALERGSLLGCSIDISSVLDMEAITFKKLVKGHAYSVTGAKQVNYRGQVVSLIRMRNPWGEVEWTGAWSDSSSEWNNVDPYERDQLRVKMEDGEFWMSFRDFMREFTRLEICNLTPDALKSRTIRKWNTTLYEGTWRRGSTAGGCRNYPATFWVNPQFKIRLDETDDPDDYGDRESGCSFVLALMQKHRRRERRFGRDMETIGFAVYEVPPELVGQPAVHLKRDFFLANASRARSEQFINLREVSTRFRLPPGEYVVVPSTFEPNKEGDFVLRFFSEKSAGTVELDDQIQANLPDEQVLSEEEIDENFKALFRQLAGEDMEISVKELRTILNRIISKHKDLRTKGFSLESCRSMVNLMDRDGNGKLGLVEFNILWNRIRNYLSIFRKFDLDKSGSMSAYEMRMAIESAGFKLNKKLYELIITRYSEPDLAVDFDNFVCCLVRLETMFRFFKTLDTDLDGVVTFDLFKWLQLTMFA
T1 sequence (P04632 1-268 partner): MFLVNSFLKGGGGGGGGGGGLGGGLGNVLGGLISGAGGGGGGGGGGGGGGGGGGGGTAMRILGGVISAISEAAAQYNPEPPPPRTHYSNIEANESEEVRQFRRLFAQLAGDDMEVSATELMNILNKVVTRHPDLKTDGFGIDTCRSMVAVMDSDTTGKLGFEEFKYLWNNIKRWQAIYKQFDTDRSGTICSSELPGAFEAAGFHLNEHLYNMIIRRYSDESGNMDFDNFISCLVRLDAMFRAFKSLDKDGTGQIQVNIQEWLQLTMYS
Procedure: Test example 1 [Inhibitory Activity against CANP]
The activity was measured according to the method of S. Ishiura et al [J. Biochem., vol. 84, page 225 (1978)].
Each of 0.45 ml of the reaction solutions containing 25 mM 2-mercaptoethanol, 5 mM calcium chloride, 0.1 M sodium glycerophosphate-HCl (pH 7.5), 0.24% alkali-denatured casein, 1% dimethyl sulfoxide and various concentrations of the test drug was preincubated at 30° C. for 5 minutes, and 5 μg of μCANP (50 μg) (Calpain I, Nacalai Tesque Inc.) was added or starting the reaction. After incubation at 30° C. for 20 minutes, the reaction was stopped by addition of 0.5 ml of 10% trichloroacetic acid. After allowing to stand at room temperature for 60 minutes, the mixture was centrifuged at 3000×g for 5 minutes, and the absorbance at 280 nm of the supernatant was determined. The remaining activity was obtained by reducing the blank value which was obtained in a similar manner to the above but adding 10% trichloroacetic acid prior to addition of μCANP from the above value. The concentration of the test drug required for 50% inhibition (IC50) was calculated from the inhibition rate obtained using the value which was measured in a similar manner to the above but without the test drug. The IC50 value of the compound obtained in Example 5 was more than 200,000 nM.

papain = molecular target: T2, papain (Carica papaya, UniProt P00784); assay: Inhibitory Activity against Papain; settings: pH 6.8, preincubated 40° C. 3 min, incubation 10 min, read-out: concentration of the test drug required for 50% inhibition (IC50)
T2 construct: purchased Sigma Chemical Co
T2 sequence (P00784 134-345): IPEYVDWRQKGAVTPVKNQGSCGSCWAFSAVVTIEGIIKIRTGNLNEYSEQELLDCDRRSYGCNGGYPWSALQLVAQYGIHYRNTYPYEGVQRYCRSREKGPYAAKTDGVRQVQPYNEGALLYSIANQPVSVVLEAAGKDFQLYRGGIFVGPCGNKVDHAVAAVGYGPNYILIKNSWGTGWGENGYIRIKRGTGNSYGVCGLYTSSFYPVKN
Procedure: Test example 2 [Inhibitory Activity against Papain]
The activity was measured according to the method of A.J. Barrett et al [Biochem. J., vol. 201, page 189, (1982)].
To each of 0.95 ml of the reaction solutions containing 2.5 mM 2-mercaptoethanol, 1 mM disodium ethylenediaminetetraacetate, 0.1 M sodium potassium phosphate (pH 6.8), 0.1% brij-35 (Nacalai Tesque Inc.), 1% dimethyl sulfoxide and the various concentrations of the test drug was added 25 μl of 400 nM papain solution (Sigma Chemical Co.), and the mixture was preincubated for 40° C. for 3 minutes, after which 25 μof 200 μM benzyloxycarbonyl-L-phenylaranyl-L-arginine 4-methyl-coumaryl-7-amide (Peptide Institute Inc.) was added for starting the reaction. After incubation at 40° C. for 10 minutes, the reaction was stopped by addition of 1 ml of 100 mM sodium chloroacetate in 100 mM sodium acetate (pH 4.3). The fluorescence of the liberated 7-amino-4-methylcoumarine was determined using a Shimazu fluorimeter RF-5000 with excitation at 380 nm and emission measured at 440 nm. The concentration of the test drug required for 50% inhibition (IC50) was calculated from the inhibiting rate calculated using the value which was measured in a similar manner to the above but without the test drug.

| SMILES | IC50 (cathepsin B) | IC50 (CANP (μCANP, Calpain I)) | IC50 (papain) |
| --- | --- | --- | --- |
| CCOC(=O)[C@H]1O[C@@H]1C(=O)N[C@H](C(=O)N1CCC[C@H]1C(=O)O)[C@@H](C)CC [Example 5, N-(L-3-trans-ethoxycarbonyl-oxirane-2-carbonyl)-L-isoleucyl-L-proline] | 120 nM | > 200 µM | 16 µM |
| CC[C@H](C)[C@H](NC(=O)[C@H]1O[C@@H]1C(=O)O)C(=O)N1CCC[C@H]1C(=O)OC [Reference Example, N-(L-3-trans-carboxyoxirane-2-carbonyl)-L-isoleucyl-L-proline methyl ester, reference compound] | 8800 nM |  |  |

— patent US5068354A, “Epoxysuccinic acid derivatives” (Taisho Pharmaceutical Co., Ltd., priority 1989, dated 1991)
